One molecule from patent US20220151979A1, “COMPOSITION FOR PREVENTION OR TREATMENT OF CARDIOVASCULAR AND METABOLIC DISEASE COMPRISING NORANHYDROICARITIN” (SEOUL NATIONAL UNIVERSITY HOSPITAL, priority 2019, published 2022) can be followed below.

Test [1] has as its system PCSK9. Nature of the test: Immunofluorescence of PCSK9 in carotid artery, mouse arteriosclerosis model. It is filed as in vivo. As to conditions: 10 μg/g/day, compared to control. Here is the method:
(§1) Carotid artery ligation was performed one week after injection of AAV-PCSK9 Virus (1×10^11 IFU/mL) and noranhydroicaritin (10 μg/g/day). After 3 weeks of ligation, it was confirmed whether the atherosclerosis model was completed, and gross plaque imaging and immunofluorescence were performed to confirm the arteriosclerosis inhibitory effect of noranhydroicaritin.
(§2) Furthermore, the arteriosclerosis inhibitory effect of noranhydroicaritin was confirmed using immunofluorescence. Specifically, a mouse carotid artery was obtained and fixed in 4% PFA for one day, and then prepared into a block. As the inflammatory response in blood vessels progresses, the arteriosclerosis worsens, and thus the marker […] of macrophages causing arteriosclerotic inflammatory response and TNF-α, IL-1B, and MCP-1, which are pro-inflammatory cytokines secreted when the inflammatory response occurs, were stained. Staining was performed using the antibody for each of CAP1(1:200), PCSK9(1:100), F4/80(1:100), TNF-α(1:100), […], and MCP-1(1:100), then imaging was performed using a confocal microscope, and […] was evaluated.

The subject of test [2] is PCSK9. Description: Immunoblot of PCSK9 in HepG2 cells, noranhydroicaritin and statin singly or in combination. Type of test: cell-based, human. As to conditions: treated singly. Here is the method: The cells aliquoted by the method of Example 7 were treated with noranhydroicaritin or a statin (atorvastatin or rosuvastatin) singly or with noranhydroicaritin and a statin (atorvastatin or rosuvastatin) simultaneously, and the proteins were extracted. On an SDS-polyacrylamide gel, 30 μg of each protein was electrophoresed, and attached to a membrane, and then protein expression levels were confirmed using the respective antibodies: phospho-AMPK, PCSK9, LDLR, and PPARγ.
Background: In western blotting, separated proteins are transferred to a membrane and probed.

For test [3], the system named is PPARα. Description: PPARα expression in HepG2 cells (RealTime-PCR, immunohistochemistry). It is filed as cell-based, human. Here is the method:
In order to confirm the effect of increasing the expression of PPARα and PPARγ of noranhydroicaritin, PCR using PPARα primers and immunohistochemistry targeting PPARα and PPARγ were performed to confirm the expression levels.
Using cDNA synthesized with RNA according to the method of Example 4, the quantities of PPARα mRNA and PPARγ mRNA were confirmed through RealTime-PCR analysis. The group treated only with DMSO was used as a negative control. For immunohistochemistry, HepG2 cells were attached to a slide chamber, then treated with noranhydroicaritin at 20 μM, and incubated. After fixation with formalin, the HepG2 cells were stained with antibodies targeting PPARα and PPARγ, and treated with DAPI to stain nuclei, and the degree of fluorescent expression was confirmed using a confocal microscope.

The subject of test [4] is PCSK9. Nature of the test: Immunoblot of PCSK9 in HepG2 cells, noranhydroicaritin and pravastatin, pitavastatin, fluvastatin or simvastatin (Table 1). Type of test: cell-based, human. As to conditions: noranhydroicaritin 20 μM singly, untreated = 1 ± 0.04. Here is the method:
The cells aliquoted by the method of Example 7 were treated with noranhydroicaritin or each statin (pravastatin, pitavastatin, fluvastatin, or simvastatin) singly or with noranhydroicaritin and a statin (pravastatin, pitavastatin, fluvastatin, or simvastatin) simultaneously, and the proteins were extracted. On an SDS-polyacrylamide gel, 30 μg of each protein was electrophoresed, and attached to a membrane, and then protein expression levels were confirmed using the respective antibodies: PCSK9 and LDLR.

Test [5] has as its system PCSK9 mRNA. Nature of the test: PCSK9 mRNA by RealTime-PCR in HepG2 cells. As to conditions: 24 hours. Type of test: cell-based, human. An excerpt:
Proprotein convertase subtilisin/kexin type 9 (PCSK9) is an enzyme involved in lipid metabolism and is attached to low-density lipoprotein receptor (LDLR) bound to low-density lipoprotein (LDL) in the liver or other cell membranes to degrade LDLR so that LDLR cannot be regenerated into the cell membrane and cannot absorb extracellular LDL. Therefore, inhibition of PCSK9 production increases LDLR, decreases extracellular LDL, and lowers cholesterol levels, and thus lipid metabolism-related diseases may be alleviated. Therefore, in order to confirm the PCSK9 production inhibitory effect of noranhydroicaritin, HepG2 cells were treated with noranhydroicaritin at various concentrations, and then the relative quantity of PCSK9 mRAN was confirmed through RealTime-PCR.
Specifically, HepG2 cells were suspended at a concentration of 2.5×10^5 cells/mL, and 1 mL thereof was inoculated into each well of a […], and then maintained for one day. The HepG2 cells in the well plate were treated with kaempferol and noranhydroicaritin at concentrations of 2.5 μM, 5 μM, 10 μM, and 20 μM, and incubated for 24 hours, and then RNA was recovered, quantified, and stored at −70° C. Thereafter, cDNA was synthesized from the RNA and the quantity of PCSK9 mRNA was confirmed through RealTime-PCR analysis. The group treated only with DMSO was used as a negative control. […]

For test [6], the system named is SREBP 2 promoter. Nature of the test: SREBP 2 promoter-reporter luciferase assay in HEK293T cells. Type of test: cell-based, human. The settings on record: pGL4.14-SREBP-transfected HEK293T cells, 18 hours, compared to control. As to the method: (§3) In order to confirm the SREBP gene expression inhibitory effect of noranhydroicaritin, HEK293T cells were treated with noranhydroicaritin and kaempferol, and it was confirmed whether the expression of SREBP was inhibited through a luciferase assay.
(§4) i) A primer was prepared to contain KpnI and XhoI restriction enzyme sites in the SREBP 1 and 2 promoter gene region, and then PCR (polymerase chain reaction) and electrophoresis on an agarose gel were performed to isolate SREBP promoter region DNA. A pGL4.14-[luc2/Hygro] vector containing a firefly luciferase as a reporter gene was treated with the same restriction enzymes (KpnI and XhoI), and then isolated via agarose gel electrophoresis and gel extraction. The purely isolated SREBP promoter gene region and pGL4.14-[luc2/Hygro] vector were reacted for 1 hour using In-fusion DNA ligase (Takara), and then transformed into E. coli to prepare a promoter-reporter construct in which the SREBP promoter was inserted, and this was named pGL4.14-SREBP.
(§5) ii) In order to measure the transcriptional activity of the SREBP promoter gene, HEK293T cells were transfected with pGL4.14-SREBP, and then the luciferase activity of the cell extract was measured. […] Thereafter, the luciferase activity was measured by the method of Example 6. […]

In test [7] the test system is F/480. Nature of the test: Immunofluorescence of macrophage marker F/480 in carotid artery, mouse arteriosclerosis model. It is filed as in vivo. As to conditions: 10 μg/g/day. As to the method:
as §1, §2

Test [8] relates to SREBP 1 promoter. Nature of the test: SREBP 1 promoter-reporter luciferase assay in HEK293T cells. Type of test: cell-based, human. As to conditions: pGL4.14-SREBP-transfected HEK293T cells, 18 hours, compared to control. Here is the method:
as §3, §4, §5

In test [9] the test system is TNF-α. Description: Immunofluorescence of TNF-α in carotid artery, mouse arteriosclerosis model. It is filed as in vivo. As to conditions: 10 μg/g/day. Here is the method: as §1, §2
For test [10], the system named is IL-1B. Nature of the test: Immunofluorescence of IL-1B in carotid artery, mouse arteriosclerosis model. Type of test: in vivo. The settings on record: 10 μg/g/day. As to the method: as §1, §2

`CC(C)=CCc1c(O)cc(O)c2c(=O)c(O)c(-c3ccc(O)cc3)oc12` [Noranhydroicaritin, noranhydroicaritin]: the “expression of PCSK9 (immunofluorescence)” value in [1] is reported as “significantly decreased”. Moreover, the “quantity of PCSK9 (immunoblot)” value in test [2] is “decreased”. Also, the “expression of PPARα” value in [3] was “increased in a concentration-dependent manner”. In test [4], the PCSK9 stood at 0.34 ± 0.02. Further, the “PCSK9 production inhibitory effect (quantity of PCSK9 mRNA)” value is “remarkably superior to that of the control” in [5] (2.5 μM and 5 μM); “superior to that of atorvastatin or rosuvastatin” in test [5] (same concentration as control). In addition, the “SREBP 2 luciferase activity” value in test [6] is “significantly decreased”. The “expression of F/480, a marker of macrophages (immunofluorescence)” value in [7] is “also decreased”. The “SREBP 1 luciferase activity” value in test [8] is “significantly decreased”. In addition, in [9], the “expression of TNF-α (immunofluorescence)” value is recorded as “decreased”. Moreover, the “expression of IL-1B (immunofluorescence)” value in [10] is recorded as “decreased”.
